Results on 1 compound are retold here after PMC5431342, “Discovery of an enzyme and substrate selective inhibitor of ADAM10 using an exosite-binding glycosylated substrate” (Scientific Reports, 2016).

Structures are written as SMILES. Where two headings read alike, the source gives them in different places.

The target in one experiment is T1, ADAM10 (Homo sapiens, UniProt O14672).
T1 construct: purchased R&D Systems 936-AD
T1 sequence (O14672 214-748): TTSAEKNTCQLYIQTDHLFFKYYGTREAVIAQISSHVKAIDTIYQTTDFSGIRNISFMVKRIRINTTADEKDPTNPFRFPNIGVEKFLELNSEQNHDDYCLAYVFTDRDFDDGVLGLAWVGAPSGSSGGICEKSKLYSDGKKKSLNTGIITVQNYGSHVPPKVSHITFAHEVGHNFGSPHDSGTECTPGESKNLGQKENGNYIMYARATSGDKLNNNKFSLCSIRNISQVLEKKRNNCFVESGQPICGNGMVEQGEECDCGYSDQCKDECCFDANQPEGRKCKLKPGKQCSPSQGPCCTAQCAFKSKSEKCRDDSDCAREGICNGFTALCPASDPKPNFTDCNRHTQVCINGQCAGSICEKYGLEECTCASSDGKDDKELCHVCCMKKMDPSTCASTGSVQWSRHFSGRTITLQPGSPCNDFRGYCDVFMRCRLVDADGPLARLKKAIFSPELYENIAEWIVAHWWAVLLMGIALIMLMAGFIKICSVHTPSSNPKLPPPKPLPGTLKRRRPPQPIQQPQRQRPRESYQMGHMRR
Put plainly: ADAM10 kinetic assays, determination of inhibition type and mechanism. It is filed as biochemical. The procedure: Since true affinity of time-dependent inhibitors cannot be determined by steady state approaches, in order to determine the true inhibition modality and true affinity of CID 3117694 we performed kinetic assays with the range of glycosylated substrate (0.5–5 [S]/KM) and inhibitor (1.56–50 µM) concentrations in quadruplicate. Reactions were allowed to run for 6 h. Progress curve data were fitted using a non-linear regression model for time-dependent inhibition (Equation 1) using MatLab software.
First, we performed the ADAM10 reaction with glycosylated substrate in the presence of […] CID 3117694 in kinetic format without pre-incubation. Obtained k obs values were plotted versus [I] to determine whether the inhibitor binding conforms to a 1- or 2-step mechanism (Fig. 4A). […] Future studies will address the exact location of this exosite.
In order to determine true inhibition modality and affinity of CID 3117694, kinetic assays were performed with the range of substrate (0.5–5 [S]/KM) and inhibitor concentrations (1.56–50 µM) in quadruplicate. Reactions were allowed to run for 6 h. Progress curve data were fitted using a non-linear regression model for time-dependent inhibition (Equation 1) using MatLab software. [P]=vst+vi−vs/kobs⁎[1−exp(−kobst)]
Obtained k obs values were plotted versus [I] to determine whether the inhibitor binding conforms to a 1- or 2-step mechanism.
To obtain true potency, Equation 3 was solved for K i and K i ′. Resulting ratio of Ki′/Ki termed α (alpha) was used to determine mechanism of inhibition. In order to confirm the true binding modality, k obs was plotted versus [S]/KM. app^Ki=[S]+KM/KM/Ki+[S]/Ki′

Experiment [1] deals with IL-8-induced migration of primary human neutrophils. Briefly: Neutrophil migration assay. The experiment is classed as cell-based. The procedure: For PBMC or primary human neutrophil chemotaxis assays, transwells with 8 or 5 µm pores were filled with 100 µL of cell suspension (1 × 10^6 cells in 100 µL DMEM + 0.2% BSA). Lower wells were filled with stimulus solution (3 nM CCL2 or 10 µg/mL CXCL8 (IL8) in assay buffer (RPMI + 0.2% BSA). After incubation of PBMCs for 2 h or neutrophils for 45 min, migrated cells were quantified in the lower well. For inhibitor studies, cells were pre-incubated in migration medium for 30 min and subsequently subjected to the migration experiment. Migrated neutrophils or PBMCs were quantified by measurement of endogenous glucuronidase activity as described.

As to `COc1cccc(C(=O)NNC(=O)C(=O)Nc2ccc(C)c(Cl)c2)c1` [CID 3117694], at ADAM10, the “ratio of Ki′/Ki, α (alpha)” value is recorded as 21.7. The Ki is 1.36 ± 0.2 µM on ADAM10 (apparent potency at initial velocity, hyperbolic two-step model, read-out: appKi); 0.33 ± 0.02 µM at ADAM10 (apparent potency at steady-state velocity, read-out: appKi*); 19 µM at ADAM10 (binding affinity for enzyme-substrate complex, read-out: Ki); 0.883 µM at ADAM10 (binding affinity for free enzyme, read-out: Ki). The inhibition modality result against ADAM10 (kobs versus [S]/KM and α) is “competitive inhibitor”. Moreover, in experiment [1], the “inhibition of neutrophil migration” value is listed as “inhibition of migration to random migration levels”.
